Experiment: gradient 5% acetonitrile 3 min, to 50% in 2 min, to 85% in 15 min, held 3 min, 100 µL/min
Settings: column: Zorbax Extend-C18 2.1 x 50 mm; eluents: water / acetonitrile, 0.1% formic acid
Outline: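 The system's dead and dwell volumes were 40 μL and 900 μL, with a Zorbax Extend-C18 column (2.1 × 50 mm, 1.8 μm) run at 100 μL/min in water and acetonitrile containing 0.1% formic acid each. Pure standards were analyzed in mixtures of ~100 molecules by HPLC–quadrupole time-of-flight mass spectrometry in positive and negative ionization mode. Retention time was assigned from computationally picked, manually inspected adduct peaks.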

| SMILES | RP-LC retention time |
| --- | --- |
| O=C(COc1ccc(-c2nnc3n2CCCC3)cc1)Nc1ccc(Br)cc1 | 734 s |
| O=C(CN1CCc2[nH]c3c(F)ccc(F)c3c(=O)c2C1)Nc1ccccc1Cl | 953 s |
| CN1CCN(C(CNC(=O)C(=O)Nc2ccc(F)cc2F)c2ccc3c(c2)OCO3)CC1 (stereo not given) | 685 s |
| C=CCN1C(=O)COc2ccc(-c3nc(NC(=O)COC)sc3C)cc21 | 836 s |
| CCCNC(=O)CCc1c(-c2ccc(Cl)cc2)nc2ccccn12 | 625 s |
| O=C(NCCCn1ccnc1)C(=O)NC1CCCCC1 | 545 s |
| Cc1noc(-c2cc(=O)n(CC(=O)Nc3cccc(C(C)C)c3)c3ccccc23)n1 | 996 s |
| COc1ccc(NC(=O)N2CCOc3ccc(Cl)cc32)cc1OC | 870 s |
| Cn1c(=O)c(C(=O)N2CCCCC2)nc2cccnc21 | 648 s |
| COc1cccc(NC(=O)c2csc(-c3cn(C)c4ncccc34)n2)c1 | 978 s |
| Cc1nc(NC(=O)c2ccccc2)n[nH]1 | 583 s |
| CCCc1cnc2c(c1SCC(=O)N(CC)CC)c(=O)n(C)c(=O)n2C | 892 s |
| CC(C(=O)N1Cc2c(C(=O)NC3CC3)nn(C)c2C1)c1ccccc1 (stereo not given) | 708 s |
| O=C(NC1CCCCC1)c1nc(-c2ccnc(N3CCCCC3)c2)no1 | 804 s |
| O=C(NC1CC1)C1Cc2ccccc2CN1S(=O)(=O)c1ccc(Cl)cc1 (stereo not given) | 909 s |
| C=CCn1c(=O)c2c(nc3n2CCN3c2ccc(OC)cc2)n(C)c1=O | 786 s |
| COc1ccc2c(c1)C1(CCN(C(=O)c3cccc(Cl)c3)C1)C(=O)N2 (stereo not given) | 753 s |
| Cc1ccc(-n2c(N3CCCC(C(=O)NCc4ccccc4Cl)C3)nc3ccsc3c2=O)cc1 (stereo not given) | 946 s |
| O=C(NCc1ccc(F)cc1F)C1CCN(C(=O)c2ncn3c2COC(c2ccc(F)cc2)C3)CC1 (stereo not given) | 776 s |
| Cc1ccccc1Nc1c(-c2ccc(N(C)C)cc2)nc2ccccn12 | 767 s |
| Fc1ccc(Nc2ncnc3nc[nH]c23)cc1 | 582 s |
| Cc1nnc(-c2ccc3ccn(CC(=O)Nc4ccccn4)c3c2)o1 | 670 s |
| Cc1cc(C)n2nc(CN(C(=O)c3ccco3)c3cccc(Cl)c3)nc2n1 | 776 s |

| SMILES | RP-LC retention time |
| --- | --- |
| Cc1ccsc1C(=O)Nc1ccc(N2CCN(c3ccccc3)C2=O)nc1 | 893 s |
| COc1ccc(OC)c(NC(=O)Cc2csc3nc(-c4ccc(C)c(C)c4)cn23)c1 | 772 s |
| Cc1sc(NC(=O)CN(C)S(C)(=O)=O)c(C#N)c1C | 719 s |
| CN(CCc1noc(-c2ccc(F)cc2)n1)C(=O)NCc1ccccc1 | 839 s |
| COc1ccc2[nH]cc(CCN3CC(C(=O)Nc4cc(F)cc(F)c4)CC3=O)c2c1 (stereo not given) | 821 s |
| CC(C)Cc1ccc(S(=O)(=O)N(C)CC2CCOCC2)cc1 | 1010 s |
| COc1ccc(-c2nc(Cn3ccnc3C)no2)cc1 | 607 s |
| CN1CCCN(C(=O)CN2CCCc3nc(C4CC4)ncc3C2=O)CC1 | 570 s |
| CC1C(=O)NCCN1C(=O)c1cc(Cl)ccc1Cl (stereo not given) | 612 s |
| O=S(=O)(c1ccc(-c2noc(-c3ccccc3Br)n2)cc1)N1CCCC1 | 1220 s |
| COc1ccc(OC)c(NC(=O)C2c3ccccc3C(=O)N3CCc4cc(OC)c(OC)cc4C23)c1 (stereo not given) | 829 s |
| Cc1cccc(NC(=O)N2CCC(c3nc(C(=O)N(C)C)c(C)o3)CC2)c1 | 689 s |
| O=C(NCC#CCN1CCc2ccccc2C1)Nc1cccs1 | 557 s |
| CC(C)N1CCCn2cc(S(=O)(=O)Nc3ccc(Oc4ccccc4)cc3)cc2C1=O | 909 s |
| COc1ccc(-c2cc(C(F)(F)F)n3nc(C(=O)O)c(Cl)c3n2)cc1OC | 855 s |
| Cc1ccc(C2c3[nH]c4ccccc4c3CCN2C(=O)Cc2cccs2)cc1 (stereo not given) | 988 s |
| O=C(NC1CCCCCC1)c1ccc2c(c1)ncn2CCN1CCCC1 | 597 s |
| COCCCn1c(=O)c2ccccc2n(Cc2nc(-c3ccc(OC)cc3)no2)c1=O | 968 s |
| CN(C)C(=O)c1csc(S(=O)(=O)N2CCC(C(=O)Nc3ccc(F)cc3Cl)CC2)c1 | 792 s |
| Cc1ccc(CNC(=O)C2CCCN(C(=O)C3Sc4ccccc4NC3=O)C2)cc1 (stereo not given) | 782 s |
| CCOC(=O)c1c(C)oc2nc(C)nc(Nc3cc(C)ccc3OC)c12 | 1350 s |
| CC(NC(=O)C1CCN(c2cc(N3CCCC3)ncn2)CC1)c1ccccc1 (stereo not given) | 644 s |
| CCn1cnc(S(=O)(=O)N2CCCC(C(=O)NCCc3ccccc3)C2)c1 (stereo not given) | 702 s |

| SMILES | RP-LC retention time |
| --- | --- |
| COc1ccc2[nH]cc(CCNC(=O)C34CCC=C3N(C3CCCC3)C(=O)CC4)c2c1 (stereo not given) | 798 s |
| O=C(NCCCn1ccnc1)C(=O)NCCC1=CCCCC1 | 571 s |
| Cc1ccc(C(=O)N2CCN(c3nnc4ccc(Cl)cn34)CC2)cc1F | 760 s |
| COc1ccc(NC(=O)N2CCN(c3ccc(=O)n(-c4ccc(C)cc4)n3)CC2)c(OC)c1 | 804 s |
| CCOc1ccc(C(=O)N2CCN(c3ccc(=O)n(-c4ccc(C(C)C)cc4)n3)CC2)cc1 | 1000 s |
| COc1ccccc1CNC(=O)c1ccc2ncnc(N3CCCC3)c2c1 | 640 s |
| CCN1CCN(c2nc(-c3cccc(C)c3)nnc2C)CC1 | 575 s |
| CCN1CCN(c2cc(C)c3cc(NC(=O)COc4ccccc4)ccc3n2)CC1 | 609 s |
| CCOc1ccccc1CNC(=O)C1CCCN(c2ccc(=O)n(-c3cccc(Cl)c3)n2)C1 (stereo not given) | 968 s |
| O=c1n(Cc2ccc(F)cc2)nc2c(-c3nc(-c4cccc(F)c4)no3)cccn12 | 971 s |
| Cc1ccc(NC(=O)C2CCN(S(=O)(=O)c3cn(C(C)C)cn3)CC2)cc1C | 819 s |
| O=C(NCc1nnnn1-c1ccc(Cl)cc1)c1ccc(S(=O)(=O)N2CCCC2)cc1 | 773 s |
| CC(C)n1cc(S(=O)(=O)NCc2ccccc2C(F)(F)F)c2cccnc21 | 977 s |
| CCN1CCCn2cc(S(=O)(=O)N3CCN(Cc4ccccc4)CC3)cc2C1=O | 587 s |
| CN(C(=O)c1cc2c(=O)oc3ccccc3c2n1C)C1CCCCC1 | 908 s |
| COCCN(Cc1ccco1)C(=O)Cn1nc(Cc2cccnc2)c2ccccc2c1=O | 613 s |
| Cn1cc(C(=O)NCCC2=CCCCC2)c2nn(-c3ccccc3)c(=O)c-2c1 | 991 s |
| Cc1ccc2[nH]cc(CCN3CC(C(=O)Nc4ccc(F)cc4F)CC3=O)c2c1 (stereo not given) | 835 s |
| Cc1ccc(CN2N=C(C(=O)N3CCCCC3)S(=O)(=O)c3ccccc32)cc1 | 974 s |
| CCCc1cc(N2CCN(C(=O)C3CC3)CC2)nc2nncn12 | 586 s |
| Cc1ccc(C(=O)Nc2ccc(N3CCN(c4ccccc4)C3=O)nc2)s1 | 893 s |
| O=C(Nc1ccccc1F)c1cccn1Cc1noc(-c2ccccc2)n1 | 1010 s |
| O=C(Cn1c(-c2cccs2)cc2cc(F)ccc21)NCCCN1CCOCC1 | 671 s |

| SMILES | RP-LC retention time |
| --- | --- |
| COc1cccc(Cn2c(C)c(CNCc3ccc(C)o3)c(C(=O)O)c2C)c1 | 715 s |
| Cc1cccc(-c2nnc(-c3nc(NCCc4c(C)noc4C)c4ccccc4n3)o2)c1 | 956 s |
| COCCOCc1nc(C2CCCN2S(=O)(=O)c2ccccc2)no1 (stereo not given) | 781 s |
| Cc1ccc(N2N=C(C(=O)NCCN3CCOCC3)S(=O)(=O)c3cc(F)ccc32)cc1 | 654 s |
| O=C(NC1CC1)c1ccc2c(c1)CCN2C(=O)C1CCC1 | 721 s |
| Cc1cc(C)c2sc(NC(=O)c3ccco3)nc2c1 | 881 s |
| CC(C)CCNC(=O)C1(C)Cn2nc(C(=O)NCc3ccccc3Br)cc2C(=O)N1C (stereo not given) | 838 s |
| O=c1c2ccccc2c(-c2nc(-c3ccncc3)no2)cn1-c1ccccc1 | 1050 s |
| O=C(NCc1ccccc1Cl)c1coc(NC(=O)c2cnccn2)n1 | 643 s |
| COc1ccc(C2NC(c3ccc(OC)c(OC)c3)C(C)C(=O)C2C)cc1OC (stereo not given) | 755 s |
| O=C(Cn1cccc(-c2nc(-c3ccc(F)cc3)no2)c1=O)Nc1ccc(Br)cc1F | 964 s |
| CCN(CC)S(=O)(=O)c1ccc2c(c1)N(CC(=O)NCCc1cnc[nH]1)C(=O)C1CCCCN21 (stereo not given) | 655 s |
| COc1ccc(NC(=O)c2c(OC)cc(=O)n3c2CCCC3)cc1OC | 628 s |
| CNC(=O)C1CCCN(c2nc3ncn(CC(=O)NCC4CCCO4)c(=O)c3s2)C1 (stereo not given) | 569 s |
| Cc1cccc(-c2cc3n(n2)CCCN(C(=O)c2n[nH]c4ccccc24)C3)c1 | 860 s |
| CC(=O)c1ccc(OC(=O)c2cc3c(C)nn(-c4ccccc4)c3s2)cc1 | 1310 s |
| COc1cc(C(=O)N2CCN(c3cc(-c4cccs4)[nH]n3)CC2)cc(OC)c1OC | 699 s |
| CCn1c(=O)c(NCc2ccc(F)cc2Cl)nc2ccncc21 | 661 s |
| CCc1ccc(N2C=NS(=O)(=O)c3cccnc32)cc1 | 853 s |
| O=C(c1c[nH]c2ccccc12)N1CCN(c2cc(-c3ccc(Cl)cc3)[nH]n2)CC1 | 811 s |
| O=C(Nc1ccc2c(c1)CCC2)Nc1cccn2ncnc12 | 891 s |

Reference: the METLIN SMRT retention time set (Domingo-Almenara et al. 2019)
